Converted amounts (≈) assume the structure as drawn.
Experiments:
Candida albicans = assay: Antifungal activity against Candida albicans by broth microdilution technique; type: functional, organism-based
Enterococcus faecalis = assay: Antibacterial activity against Streptococcus faecalis by broth microdilution technique; type: functional, organism-based; conditions: for IC50: read-out: IC50
Candida parapsilosis = assay: Antifungal activity against Candida parapsilosis ATCC 22019 by broth microdilution technique; type: functional, organism-based; conditions: Lodderomyces parapsilosis
Klebsiella pneumoniae = assay: Antibacterial activity against Klebsiella pneumoniae by broth microdilution technique; type: functional, organism-based; conditions: for IC50: read-out: IC50
Cryptococcus neoformans = assay: Antifungal activity against Cryptococcus neoformans by broth microdilution technique; type: functional, organism-based
Staphylococcus aureus = assay: Antibacterial activity against Staphylococcus aureus by broth microdilution technique; type: functional, organism-based; conditions: for IC50: read-out: IC50
Escherichia coli = assay: Antibacterial activity against Escherichia coli by broth microdilution technique; type: functional, organism-based; conditions: for IC50: read-out: IC50
Aspergillus fumigatus = assay: Antifungal activity against Aspergillus fumigatus by broth microdilution technique; type: functional, organism-based
Sporothrix schenckii = assay: Antifungal activity against Sporothrix schenckii by broth microdilution technique; type: functional, organism-based
Pseudomonas aeruginosa = assay: Antibacterial activity against Pseudomonas aeruginosa by broth microdilution technique; type: functional, organism-based; conditions: for IC50: read-out: IC50
Trichophyton benhamiae = assay: Antifungal activity against Trichophyton mentagrophytes by broth microdilution technique; type: functional, organism-based, Arthroderma benhamiae

Compound | IC50 (Candida albicans) | MIC (Candida albicans) | MIC (Enterococcus faecalis; Enterococcus faecalis) | IC50 (Enterococcus faecalis; Enterococcus faecalis) | IC50 (Candida parapsilosis) | MIC (Candida parapsilosis) | MIC (Klebsiella pneumoniae; Klebsiella pneumoniae) | IC50 (Klebsiella pneumoniae; Klebsiella pneumoniae) | IC50 (Cryptococcus neoformans) | MIC (Cryptococcus neoformans) | MIC (Staphylococcus aureus; Staphylococcus aureus) | IC50 (Staphylococcus aureus; Staphylococcus aureus) | IC50 (Escherichia coli; Escherichia coli) | IC50 (Aspergillus fumigatus) | MIC (Aspergillus fumigatus) | IC50 (Sporothrix schenckii) | MIC (Sporothrix schenckii) | MIC (Pseudomonas aeruginosa; Pseudomonas aeruginosa) | IC50 (Pseudomonas aeruginosa; Pseudomonas aeruginosa) | IC50 (Trichophyton benhamiae) | further results
Cc1sc2c(=O)c3ccccc3c(=O)c=2n(C)c1O | 5.3 µg/mL (≈ 19.4 µM) | 6.25 µg/mL (≈ 22.9 µM) | 3.12 µg/mL (≈ 11.4 µM) | 2.58 µg/mL (≈ 9.44 µM) | 10.4 µg/mL (≈ 38 µM) | 12.5 µg/mL (≈ 45.7 µM) | 3.12 µg/mL (≈ 11.4 µM) | 1.98 µg/mL (≈ 7.24 µM) | 1.54 µg/mL (≈ 5.63 µM) | 3.12 µg/mL (≈ 11.4 µM) | 3.12 µg/mL (≈ 11.4 µM) | 1.92 µg/mL (≈ 7.02 µM) | 0.96 µg/mL (≈ 3.51 µM) | 3.98 µg/mL (≈ 14.6 µM) | 6.25 µg/mL (≈ 22.9 µM) | 2.84 µg/mL (≈ 10.4 µM) | 3.12 µg/mL (≈ 11.4 µM) | 50 µg/mL (≈ 183 µM) | 49.3 µg/mL (≈ 180 µM) | 0.9 µg/mL (≈ 3.29 µM) | MIC (Escherichia coli; Escherichia coli): 1.56 µg/mL (≈ 5.71 µM); MIC (Trichophyton benhamiae): 1.56 µg/mL (≈ 5.71 µM)
C[C@@H]1[C@H](O)[C@@H](C)/C=C/C=C/C=C/C=C/C=C/C=C/C=C/[C@H](O[C@@H]2O[C@H](C)[C@@H](O)[C@H](N)[C@@H]2O)C[C@@H]2O[C@](O)(C[C@@H](O)C[C@@H](O)[C@H](O)CC[C@@H](O)C[C@@H](O)CC(=O)O[C@H]1C)C[C@H](O)[C@H]2C(=O)O [AMPHOTERICIN B] | 0.09 µg/mL (≈ 0.0974 µM) | 0.12 µg/mL (≈ 0.13 µM) | – | – | 0.11 µg/mL (≈ 0.119 µM) | 0.12 µg/mL (≈ 0.13 µM) | – | – | 0.04 µg/mL (≈ 0.0433 µM) | 0.06 µg/mL (≈ 0.0649 µM) | – | – | – | 0.38 µg/mL (≈ 0.411 µM) | 0.5 µg/mL (≈ 0.541 µM) | 0.08 µg/mL (≈ 0.0866 µM) | 0.12 µg/mL (≈ 0.13 µM) | – | – | 0.09 µg/mL (≈ 0.0974 µM) | MIC (Trichophyton benhamiae): 0.12 µg/mL (≈ 0.13 µM)
GENTAMICIN | – | – | – | – | – | – | – | – | – | – | – | – | – | – | – | – | – | – | – | – | MIC (Enterococcus faecalis): 0.78 µg/mL; MIC (Klebsiella pneumoniae): 0.78 µg/mL; MIC (Staphylococcus aureus): 6.25 µg/mL; MIC (Escherichia coli): 0.18 µg/mL; MIC (Pseudomonas aeruginosa): 25 µg/mL
CCOC(=O)C(C)SC1=C(NCCO)C(=O)c2ccccc2C1=O (stereo unspecified) | 23.3 µg/mL (≈ 66.6 µM) | 25 µg/mL (≈ 71.5 µM) | 6.25 µg/mL (≈ 17.9 µM) | 5.42 µg/mL (≈ 15.5 µM) | 22.5 µg/mL (≈ 64.5 µM) | 25 µg/mL (≈ 71.5 µM) | 12.5 µg/mL (≈ 35.8 µM) | 11.6 µg/mL (≈ 33.1 µM) | 6.92 µg/mL (≈ 19.8 µM) | 12.5 µg/mL (≈ 35.8 µM) | 6.25 µg/mL (≈ 17.9 µM) | 4.82 µg/mL (≈ 13.8 µM) | 2.24 µg/mL (≈ 6.41 µM) | 23.9 µg/mL (≈ 68.5 µM) | 25 µg/mL (≈ 71.5 µM) | 21.9 µg/mL (≈ 62.8 µM) | 25 µg/mL (≈ 71.5 µM) | 25 µg/mL (≈ 71.5 µM) | 24.5 µg/mL (≈ 70.2 µM) | > 50 µg/mL | MIC (Escherichia coli; Escherichia coli): 3.12 µg/mL (≈ 8.93 µM); MIC (Trichophyton benhamiae): > 50 µg/mL
CCOC(=O)C(C)SC1=C(Cl)C(=O)c2ccccc2C1=O (stereo unspecified) | > 50 µg/mL | > 50 µg/mL | 12.5 µg/mL (≈ 38.5 µM) | 9.52 µg/mL (≈ 29.3 µM) | > 50 µg/mL | > 50 µg/mL | 50 µg/mL (≈ 154 µM) | 28.3 µg/mL (≈ 87.3 µM) | 11.5 µg/mL (≈ 35.3 µM) | 12.5 µg/mL (≈ 38.5 µM) | 12.5 µg/mL (≈ 38.5 µM) | 7.95 µg/mL (≈ 24.5 µM) | 6.34 µg/mL (≈ 19.5 µM) | > 50 µg/mL | > 50 µg/mL | 22.7 µg/mL (≈ 69.8 µM) | 25 µg/mL (≈ 77 µM) | 50 µg/mL (≈ 154 µM) | 48.3 µg/mL (≈ 149 µM) | > 50 µg/mL | MIC (Escherichia coli; Escherichia coli): 12.5 µg/mL (≈ 38.5 µM); MIC (Trichophyton benhamiae): > 50 µg/mL
CC1(C)S[C@@H]2[C@H](NC(=O)[C@H](N)c3ccccc3)C(=O)N2[C@H]1C(=O)O [AMPICILLIN] | – | – | 0.02 µg/mL (≈ 0.0572 µM) | 0.01 µg/mL (≈ 0.0286 µM) | – | – | 0.09 µg/mL (≈ 0.258 µM) | 0.08 µg/mL (≈ 0.229 µM) | – | – | 0.9 µg/mL (≈ 2.58 µM) | 0.74 µg/mL (≈ 2.12 µM) | 0.01 µg/mL (≈ 0.0286 µM) | – | – | – | – | 50 µg/mL (≈ 143 µM) | 48.7 µg/mL (≈ 139 µM) | – | –
CCOC(=O)CSC1=C(NCC(C)C)C(=O)c2ccccc2C1=O | > 50 µg/mL | > 50 µg/mL | 25 µg/mL (≈ 72 µM) | 19.5 µg/mL (≈ 56.2 µM) | > 50 µg/mL | > 50 µg/mL | 50 µg/mL (≈ 144 µM) | 38.5 µg/mL (≈ 111 µM) | > 50 µg/mL | > 50 µg/mL | 25 µg/mL (≈ 72 µM) | 21.6 µg/mL (≈ 62.1 µM) | 39.3 µg/mL (≈ 113 µM) | > 50 µg/mL | > 50 µg/mL | 22.8 µg/mL (≈ 65.7 µM) | 50 µg/mL (≈ 144 µM) | 50 µg/mL (≈ 144 µM) | 42.5 µg/mL (≈ 122 µM) | 9.8 µg/mL (≈ 28.2 µM) | MIC (Escherichia coli; Escherichia coli): 50 µg/mL (≈ 144 µM); MIC (Trichophyton benhamiae): 12.5 µg/mL (≈ 36 µM)
CCOC(=O)CSC1=C(Nc2ccccc2)C(=O)c2ccccc2C1=O | > 50 µg/mL | > 50 µg/mL | 25 µg/mL (≈ 68 µM) | 18.6 µg/mL (≈ 50.7 µM) | > 50 µg/mL | > 50 µg/mL | 12.5 µg/mL (≈ 34 µM) | 9.24 µg/mL (≈ 25.1 µM) | > 50 µg/mL | > 50 µg/mL | 12.5 µg/mL (≈ 34 µM) | 11.8 µg/mL (≈ 32.2 µM) | 4.32 µg/mL (≈ 11.8 µM) | > 50 µg/mL | > 50 µg/mL | 46.7 µg/mL (≈ 127 µM) | 50 µg/mL (≈ 136 µM) | 25 µg/mL (≈ 68 µM) | 22.8 µg/mL (≈ 62.1 µM) | 23 µg/mL (≈ 62.6 µM) | MIC (Escherichia coli; Escherichia coli): 6.25 µg/mL (≈ 17 µM); MIC (Trichophyton benhamiae): 25 µg/mL (≈ 68 µM)

Source: ChEMBL document CHEMBL1139716, “Naphtho[2,3-b][1,4]-thiazine-5,10-diones and 3-substituted-1,4-dioxo-1,4-dihydronaphthalen-2-yl-thioalkanoate derivatives: synthesis and biological evaluation as potential antibacterial and antifungal agents” (Bioorg Med Chem Lett, 2006)
